# According to patent publication US11083199B2, “Heterocycle derivatives as pesticides” (Bayer Aktiengesellschaft, priority 2017, dated 2021):
# Columns and labels:
# Format in all cases: in vivo
# [1] = tested on: Ctenocephalides felis; assay: Ctenocephalides felis oral test; details: 48 h, application rate 100 ppm in citrated cattle blood, kill after 2 days, read-out: efficacy
# Description: Solvent: dimethyl sulfoxide To produce a suitable active ingredient formulation, 10 mg of active ingredient are mixed with 0.5 ml of dimethyl sulfoxide. Dilution with citrated cattle blood gives the desired concentration. About 20 unfed adult cat fleas (Ctenocephalides felis) are placed into a chamber which is closed at the top and bottom with gauze. A metal cylinder whose bottom end is closed with parafilm is placed onto the chamber. The cylinder contains the blood/active ingredient formulation, which can be imbibed by the fleas through the parafilm membrane. After 2 days, the kill in % is determined. 100% means that all of the fleas have been killed; 0% means that none of the fleas have been killed.
# [2] = tested on: Phaedon cochleariae; assay: Phaedon cochleariae spray test; details: 168 h, application rate 100 g/ha, larvae, after 7 days, read-out: efficacy
# How it was run: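 Chinese cabbage leaf discs sprayed with compound formulated in solvent and water containing 1000 ppm emulsifier. Once dry, discs were populated with mustard beetle larvae. Percent kill scored after 7 days, 100% meaning all larvae dead and 0% none.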
# [3] = tested on: Ctenocephalides felis; assay: Ctenocephalides felis in vitro contact test with adult cat fleas; details: application rate 5 μg/cm^2 (=500 g/ha), adult cat fleas dead or moribund after 48 h, read-out: efficacy
# Description: For the coating of the test tubes, 9 mg of active ingredient are first dissolved in 1 ml of acetone p.a. and then diluted to the desired concentration with acetone p.a. 250 μl of the solution are distributed homogeneously on the inner walls and the base of a 25 ml glass tube by turning and rocking on an orbital shaker (rocking rotation at 30 rpm for 2 h). With 900 ppm of active ingredient solution and internal surface area 44.7 cm^2, given homogeneous distribution, an area-based dose of 5 μg/cm^2 is achieved. After the solvent has evaporated off, the tubes are populated with 5-10 adult cat fleas (Ctenocephalides felis), sealed with a perforated plastic lid and incubated in a horizontal position at room temperature and ambient humidity. After 48 h, efficacy is determined. To this end, the tubes are stood upright and the fleas are knocked to the base of the tube. Fleas which remain motionless at the base or move in an uncoordinated manner are considered to be dead or moribund. […] 100% efficacy means that all the fleas were dead or moribund. 0% efficacy means that no fleas were harmed.
# [4] = tested on: Lucilia cuprina; assay: Lucilia cuprina test; details: 48 h, application rate 100 ppm, L1 larvae, kill after 2 days, read-out: efficacy
# Description: Solvent: dimethyl sulfoxide To produce a suitable active ingredient formulation, 10 mg of active ingredient are mixed with 0.5 ml of dimethyl sulfoxide, and the concentrate is diluted with water to the desired concentration. About 20 L1 larvae of the Australian sheep blowfly (Lucilia cuprina) are transferred into a test vessel containing minced horsemeat and the active ingredient formulation of the desired concentration. After 2 days, the kill in % is determined. 100% means that all the larvae have been killed; 0% means that no larvae have been killed.
# [5] = tested on: Spodoptera frugiperda; assay: Spodoptera frugiperda spray test; details: foliar, 168 h, application rate 100 g/ha, maize leaf discs, caterpillars, after 7 days, read-out: efficacy
# How it was run: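 Maize leaf discs sprayed with compound formulated in solvent plus water with 1000 ppm emulsifier, dried, then infested with fall armyworm caterpillars. Mortality scored after 7 days as % efficacy (100% = all caterpillars killed, 0% = none).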
# [6] = tested on: Musca domestica; assay: Musca domestica test; details: application rate 100 ppm; adult houseflies, kill after 2 days
# Description: Solvent: dimethyl sulfoxide To produce a suitable active ingredient formulation, 10 mg of active ingredient are mixed with 0.5 ml of dimethyl sulfoxide, and the concentrate is diluted with water to the desired concentration. Vessels containing a sponge treated with sugar solution and the desired concentration of active ingredient formulation are populated with 10 adult houseflies (Musca domestica). After 2 days, the kill in % is determined. 100% means that all of the flies have been killed; 0% means that none of the flies have been killed.
# [7] = tested on: Myzus persicae; assay: Myzus persicae spray test; details: foliar, 120 h, application rate 100 g/ha, Chinese cabbage leaf discs, after 5 days, read-out: efficacy
# How it was run: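 Chinese cabbage leaf discs infested with all aphid stages sprayed with compound formulated in emulsifier-containing water (1000 ppm emulsifier). Efficacy (% aphids killed; 100% = all killed) determined after 5 days.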
# [8] = tested on: Myzus persicae; assay: Myzus persicae oral test; details: 120 h, application rate 4 ppm, after 5 days, read-out: efficacy
# How it was run: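 Compound formulation diluted with IPL41 insect medium (33%+15% sugar) and sealed under parafilm; mixed-population aphids feed through the membrane from a second plate. Mortality scored after 5 days as % efficacy (100% = all aphids killed, 0% = none).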
# [9] = tested on: Boophilus microplus; assay: Boophilus microplus injection test; details: application rate 20 μg/animal, injected; laying of fertile eggs assessed after 7 days
# Description: Solvent: dimethyl sulfoxide To produce a suitable active ingredient formulation, 10 mg of active ingredient are mixed with 0.5 ml of solvent and the concentrate is diluted to the desired concentration with solvent. 1 μl of the active ingredient solution is injected into the abdomen of 5 engorged adult female cattle ticks (Boophilus microplus). The animals are transferred into dishes and kept in a climate-controlled room. Efficacy is assessed after 7 days by laying of fertile eggs. Eggs which are not visibly fertile are stored in a climate-controlled cabinet until the larvae hatch after about 42 days. An efficacy of 100% means that none of the ticks has laid any fertile eggs; 0% means that all the eggs are fertile.
# [10] = tested on: Tetranychus urticae; assay: Tetranychus urticae spray test, OP-resistant; details: foliar, 144 h, bean leaf discs, after 6 days, read-out: efficacy
# Description: [table] To produce a suitable active ingredient formulation, 1 part by weight of active ingredient is dissolved with the specified parts by weight of solvent and made up to the desired concentration with water containing an emulsifier concentration of 1000 ppm. To produce further test concentrations, the formulation is diluted with emulsifier-containing water. Discs of bean leaves (Phaseolus vulgaris) infested with all stages of the greenhouse red spider mite (Tetranychus urticae) are sprayed with an active ingredient formulation of the desired concentration. After 6 days, the efficacy in % is determined. 100% means that all the spider mites have been killed; 0% means that no spider mites have been killed.
SMILES,pest or weed control at 100 ppm [1] [%],pest or weed control at 100 g/ha [2] [%],"pest or weed control at 5 µg/cm2, 500 g/ha [3] [%]",pest or weed control at 100 ppm [4] [%],pest or weed control at 100 g/ha [5] [%],efficacy [6] [%],pest or weed control at 100 g/ha [7] [%],pest or weed control at 4 ppm [8] [%],efficacy [9] [%],pest or weed control at 20 g/ha ([10]; application rate 20 g/ha) [%],pest or weed control at 100 g/ha ([10]; application rate 100 g/ha) [%]
CCS(=O)(=O)c1c(-c2nc3cc(C(F)(F)F)ncc3n2C)nc(-c2ccc(Cl)cc2)n1C [Example I-005],100,100,100,100,100,100,90,100,–,–,–
CCNC(=O)c1nc(-c2nc3cc(C(F)(F)F)ncc3n2C)c(S(=O)(=O)CC)n1C [Example I-041],–,100,–,–,–,–,90,100,100,–,–
CCS(=O)(=O)c1c(-c2nc3cc(C(F)(F)F)ncc3n2C)nc(-c2cncc(F)c2)n1C [Example I-018],100,100,100,100,83,80,100,100,–,–,–
"CCS(=O)(=O)c1c(-c2nc3cc(C(F)(F)F)ncc3n2C)nc(-c2cccc(Cl)n2)n1C [Example I-014, 2-[2-(6-Chloropyridin-2-yl)-5-(ethylsulfonyl)-1-methyl-1H-imidazol-4-yl]-3-methyl-6-(trifluoromethyl)-3H-imidazo[4,5-c]pyridine]",100,100,100,100,100,80,100,100,–,–,–
CCn1c(-c2ccccc2)nc(-c2nc3cc(C(F)(F)F)ncc3n2C)c1S(=O)(=O)CC [Example I-009],95,–,100,100,–,80,90,100,–,–,–
CCS(=O)(=O)c1c(-c2nc3cc(C(F)(F)F)ncc3n2C)nc(-c2cc(Cl)cs2)n1C [Example I-033],100,–,–,100,100,90,90,100,–,–,–
CCS(=O)(=O)c1c(-c2nc3cc(C(F)(F)F)ncc3n2C)nc(-c2cccnc2)n1C [Example I-016],–,–,–,100,–,–,100,100,90,–,–
"CCS(=O)(=O)c1c(-c2nc3cc(C(F)(F)F)ncc3n2C)nc(-c2ccc(F)nc2)n1C [Example I-019, 2-[5-(Ethylsulfonyl)-2-(6-fluoropyridin-3-yl)-1-methyl-1H-imidazol-4-yl]-3-methyl-6-(trifluoromethyl)-3H-imidazo[4,5-c]pyridine]",95,100,100,100,100,100,100,100,–,–,–
CCS(=O)(=O)c1c(-c2nc3cc(C(F)(F)F)ncc3n2C)nc(-c2ccn[nH]2)n1C [Example I-049],80,100,–,100,–,80,90,100,–,90,90
